The record followed here is patent US7714150B2, “Aminoalkyl-amidomethyl-substituted 2-(4-sulphonylamino)-3-hydroxy-3,4-dihydro-2H-chroman-6-yl derivatives” (Solvay Pharmaceuticals GmbH, priority 2005, dated 2010).

Experiment [1] has as its system left atrium of rats' hearts. Briefly: Functional refractory period prolongation on isolated left atria of rats' hearts in vitro. Further details: species or system rat. The procedure:
In this test model it is determined to what extent the Kv1.5-blocking substances of Formula I result in a prolongation of the functional refractory period in the left atrium of rats. The refractory period is the minimum possible elapsed time between the basic stimulus and additional stimulus in which a renewed contraction can be triggered. The extent of the prolongation of the functional refractory period is a measurement of the antiarrhythmic effectiveness of the substances according to the invention. The functional refractory period is determined by testing on the electrically stimulated preparation at what elapsed time from the preceding contraction a renewed contraction can be triggered by additional electrical stimuli.
The hearts were removed from freshly sacrificed rats (Sprague-Dawley, Charles-River, Germany). The left atria were isolated and fastened to force transducers in a temperature-controlled (30° C.), gasified (O2 95%, CO2 5%) organ bath which was filled with modified Tyrode solution (all values in mM: NaCl 137; KCl 2.7; CaCl2 1.8; MgCl2 0.8; NaHCO3 11.9; NaH2PO4 0.6; glucose 5). In order to trigger regular contractions, the preparations were electrically stimulated (rectangular pulses, pulse magnitude 3.5× threshold stimulus, pulse width 1.5 ms, frequency 1 Hz). Initially, the initial value of the functional refractory period was determined by applying extra pulses in addition to the basic stimulus, the elapsed time from the preceding basic stimulus being shortened until no further additional contraction could be triggered. Then the cumulative addition of increasing concentrations (0.1-32 μM) of the substances of Formula I took place at intervals of 20 min. each, the refractory period being determined again in each case 18 min. after the addition had taken place. Before the measurement, stock solutions of the test substances (3.2 and 0.32 mM in 100% DMSO) were prepared. In order to achieve the desired final concentrations of the substances (0.1-32 μM) in the organ bath (volume 25 or 100 ml), corresponding volumes of these stock solutions were then poured into the organ bath.
In each case the prolongation of the functional refractory period (FRP) in the left atrium of the rats' hearts in milliseconds observed after the addition of 10 or 32 μM of the respective substance of Formula I to the atrial preparations was given as characteristic variable.

Experiment [2] has as its target T1, Kv1.3-potassium channel (Homo sapiens, UniProt P22001).
T1 construct: expressed in transfected cells; host or cells: CHO (Chinese hamster ovary) cells, stably transfected with a Kv1.3 plasmid
The experiment can be described thus: Kv1.3-potassium channel-blocking effect in vitro (membrane potential-sensitive dye fluorescence in transfected CHO cells). The format is cell-based. Conditions: 10 μM test substance; CHO cells transfected with Kv1.3; relative to margatoxin. The text has this:
In this test model, known ovary cells of the Chinese hamster (=CHO) are used which are stably transfected with the Kv1.3-potassium channel The blockade of the cell-inherent Kv1.3-potassium channel activity in the transfected cells is accompanied by a positive shift in the membrane potential from approx. −40 mV to −30 mV, whereas in the wild-type CHO cells investigated in parallel no significant shift in the membrane potential is triggered. A change in the membrane potential is thus connected to the reduction in the Kv1.3-potassium channel activity. By blocking the Kv1.3-potassium channels e.g. with substances of Formula I and the resulting change in the membrane potential, an accumulation of a membrane potential-sensitive fluorescent dye in intracellular compartments of the ovary cells and ultimately increasing fluorescence occurs. The change in the membrane potential of the ovary cells is therefore measured indirectly via the increase in fluorescence of the membrane potential-sensitive dyes.
The cells were transfected with the Kv1.3 plasmid in known manner with a commercially obtainable transfection reagent (DMRIE-C from Gibco BRL, Germany). The successful transfection was verified by means of immunofluorescence and by “patch-clamp” investigations of the potassium ion current. The fluorescence measurements were performed on a Tecan Safire fluorescence reader from Tecan, Germany. In each case, the increase in the fluorescent intensity caused by the blockade of the Kv1.3-potassium channels in the ovary cells with substances of Formula I in a concentration of 10 μM was determined as characteristic variable. The increase in the fluorescent intensity was given in each case in percent (%) compared with an increase in the fluorescent intensity caused by the reference substance margatoxin. Margatoxin is known as a selective Kv1.3-potassium channel blocker (see e.g. M. Garcia-Calvo et al., J. Biol. Chem. 268 (1993) 18866-18874).

T1 sequence (P22001 whole entry): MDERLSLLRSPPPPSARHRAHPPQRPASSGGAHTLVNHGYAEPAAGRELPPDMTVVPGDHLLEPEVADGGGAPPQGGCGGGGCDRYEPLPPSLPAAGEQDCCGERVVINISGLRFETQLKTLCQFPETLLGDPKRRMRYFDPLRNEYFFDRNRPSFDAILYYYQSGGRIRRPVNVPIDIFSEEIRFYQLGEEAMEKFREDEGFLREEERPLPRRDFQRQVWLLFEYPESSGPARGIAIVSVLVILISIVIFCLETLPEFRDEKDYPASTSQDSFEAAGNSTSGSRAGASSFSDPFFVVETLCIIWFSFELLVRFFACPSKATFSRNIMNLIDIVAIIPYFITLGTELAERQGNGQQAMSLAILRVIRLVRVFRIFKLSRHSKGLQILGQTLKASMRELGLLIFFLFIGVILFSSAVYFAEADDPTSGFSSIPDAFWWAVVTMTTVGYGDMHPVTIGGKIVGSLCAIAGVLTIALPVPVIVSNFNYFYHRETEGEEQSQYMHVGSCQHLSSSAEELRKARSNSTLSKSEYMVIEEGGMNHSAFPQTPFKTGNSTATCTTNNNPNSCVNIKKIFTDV

For the compound `CCCc1ccc(S(=O)(=O)N[C@@H]2c3cc(CC(=O)N4CCN(Cc5ccccc5)CC4)ccc3OC(C)(C)[C@H]2O)cc1` [Example 1], the FRP prolongation in experiment [1] (10 μM) is reported as 15 (10 μM) ms.
For the compound `CC(C)CCN([C@@H]1c2cc(CC(=O)NCCN3CCCCC3)ccc2OC(C)(C)[C@H]1O)S(=O)(=O)c1ccc(I)cc1` [Example 3, (3S, 4R)-2-{3-Hydroxy-4-[(4-iodobenzenesulfonyl)-(3-methylbutyl)amino]-2,2-dimethylchroman-6-yl}-N-(2-piperidin-1-ylethyl)acetamide], in experiment [1] (10 μM), the FRP prolongation is reported as 15 (10 μM) ms.
Consider `CCC(CC)CN([C@@H]1c2cc(CC(=O)N[C@@H]3CCN(Cc4ccccc4)C3)ccc2OC(C)(C)[C@H]1O)S(=O)(=O)c1cccc(OC)c1` [Example 4, (3S, 4R)-N-(1-Benzylpyrrolidin-3R-yl)-2-{4-[(2-Ethylbutyl)-(3-Methoxybenzenesulfonyl)Amino]-3 -Hydroxy-2,2-Dimethylchroman-6-yl}Acetamide], for which, in experiment [2], the “Increase in the fluorescent intensity (% margatoxin)” value worked out at 41.8 % margatoxin.
Still for that read-out and setting: to `CCCCN(CC)CCNC(=O)Cc1ccc2c(c1)[C@@H](N(CC(CC)CC)S(=O)(=O)c1ccc(I)cc1)[C@H](O)C(C)(C)O2` [Example 5, (3S, 4R)-N-[2-(Butylethylamino)Ethyl]-2-{4-[(2-Ethylbutyl)-(4-iodobenzenesulfonyl)Amino]-3-Hydroxy-2,2-dimethylchroman-6-yl)Acetamide] belongs 39.8 % margatoxin.
Turning to `COc1cccc(S(=O)(=O)N(CCC(C)C)[C@@H]2c3cc(CC(=O)NCC4CN(Cc5ccccc5)CCO4)ccc3OC(C)(C)[C@H]2O)c1` (stereo partly drawn) [Example 6], the FRP prolongation in experiment [1] (32 μM) is given as 16 (32 μM) ms. In experiment [2], the “Increase in the fluorescent intensity (% margatoxin)” value is on record as 59.9 % margatoxin.
For `Cc1ccc(S(=O)(=O)N(CC2CC2)[C@@H]2c3cc(CC(=O)N4CCN(Cc5ccccc5)CC4)ccc3OC(C)(C)[C@H]2O)cc1` [Example 7, (3S, 4R)-N-{6-[2-(4-Benzylpiperazin-1-yl)-2-Oxoethyl]-3-Hydroxy-2,2-Dimethylchroman-4-yl}-N-Cyclopropylmethyl-4-Methylbenzenesulfonamide], in experiment [1] (10 μM), the FRP prolongation is on record as 13 (10 μM) ms.
In the case of `CCc1ccc(S(=O)(=O)N[C@@H]2c3cc(CC(=O)N4CCN(Cc5cccnc5)CC4)ccc3OC(C)(C)[C@H]2O)cc1` [Example 8, 4-Ethyl-N-((3S,4R)-3-Hydroxy-2,2-Dimethyl-6-{2-Oxo-2-[4-(pyridin-3-ylmethyl)piperazin-1-yl]ethyl}-3,4-dihydro-2H-Chromen-4-yl)Benzenesulfonamide], the FRP prolongation in experiment [1] (32 μM) is 22 (32 μM) ms.
As for `CCc1ccc(S(=O)(=O)NC2c3cc(CC(=O)N4CCN(Cc5ccccc5)CC4)ccc3OC(C)(C)C2O)cc1` (stereo not drawn) [Example 10, N-{6-[2-(4-benzyl-piperazin-1-yl)-2-oxo-ethyl]-3-hydroxy-2,2-dimethyl-chroman-4-yl}-4-ethyl-benzenesulfonamide], the FRP prolongation in experiment [1] (10 μM) was 24 (10 μM) ms.
